# Experiments:
# [1] = tested on: S-opsin, M-opsin, L-opsin; test: Quantitative PCR of S-opsin, M-opsin, L-opsin after maturation culture in serum-free medium; assay type: cell-based, human; details: BMP4 (0-1.35 nM) added in combination with T3 (0-8 nM) in serum-free DMEM/F12 after about day 190, not less than 30 days
# Experimental: By a method similar to the methods described in Example 1 and Example 3, a cell aggregate containing a retinal tissue in a differentiation stage matured to the level that Muller cell was observed was prepared and culture was performed, in the serum-containing medium used, up to about day 190 to give a retinal tissue in a differentiation stage matured to the level that Muller cell was observed. Thereafter, by a method similar to the methods described in Example 11 and 12, further maturation was performed. That is, 0-1.35 nM BMP4 and 0-8 nM T3 were added to a medium obtained by adding 1% N2 supplement and 100 μM taurine but not adding 10% fetal calf serum to DMEM/F12 medium containing glutamic acid as a component, and culture was performed for not less than 30 days from the start of culture for further maturation. A cell aggregate containing a retinal tissue was recovered, quantitatively PCR was performed according to a conventional method, and the expression levels of S-opsin, M-opsin, L-opsin were confirmed. As a result, irrespective of the presence or absence of BMP4, the expression of S-opsin was promoted when T3 was absent.
# [2] = tested on: photoreceptor precursor and cone photoreceptor precursor in retinal tissue produced from human ES cells; test: Immunostaining for CRX and TRβ2 and CRX::Venus fluorescence observation of retinal tissue, day 70-75 of suspension culture; assay type: cell-based
# ALDH1A1 gene = test: Quantitative PCR of ALDH1A1 gene expression in retinal tissue; assay type: cell-based, human
# Experimental: [1] Control group (FIG. 2a, f, k, p); according to the method described in Example 1, culture was performed up to day 70 or day 75 from the start of suspension culture and without addition. [2]+BMP group (FIG. 2b, g, 1, q); 0.15 nM BMP4 was added from day 22 from the start of suspension culture to completion of suspension culture, and cultured up to day 70 or day 75 from the start of suspension culture. [3]+Cyclopamine-KAAD group (FIG. 2c, h, m, r); 500 nM Cyclopamine-KAAD was added from day 22 from the start of suspension culture to completion of the suspension culture, and cultured up to day 70 or day 75 from the start of suspension culture. [4]+LDN193189 group (FIG. 2d, i, n, s); 100 nM LDN193189 was added from day 22 from the start of suspension culture to completion of the suspension culture, and cultured up to day 70 or day 75 from the start of suspension culture. [5]+SAG group (FIG. 2e, j, o, t); 100 nM SAG was added from day 22 from the start of suspension culture to completion of the suspension culture, and cultured up to day 70 or day 75 from the start of suspension culture.
# The expression level of ALDH1A1 gene was analyzed by quantitative PCR using the same cDNA as that used in Example 7. As a result, similar to that observed by immunostaining, the expression level of ALDH1A1 gene was promoted in +BMP4 group as compared to the Control (NUC) group on about day 40 from the start of suspension culture (FIG. 8-2, black bar (d40) in graph). […]
# After extracting RNA from retinal tissue prepared in this way, cDNA was synthesized and the expression level of ALDH1A1 gene was analyzed by quantitative PCR. […] Furthermore, a retinal tissue prepared using 1.35 nM BMP4 was fixed with 4% para-formaldehyde, cryosections were prepared, and immunostaining using an antibody against GFP (fluorescence of GFP variant incorporated in CRX gene locus can be identified. That is, cells similar to CRX-positive cell can be identified), ALDH1A1, or DAPI staining for staining the nucleus was performed. […]
substance,measurement,setting,value
BMP4: BMP protein; BMP signal transduction pathway agonist used as dorsalization signal transmitter,expression of L and M-opsin,[1],promoted
same,CRX::Venus-positive cells as compared with group added with 0.15 nM BMP4,[2]; 0.45 nM BMP4 from day 22,became less
same,CRX::Venus-positive cells as compared with group added with 0.15 nM BMP4,[2]; 1.35 nM BMP4 from day 22,became less
same,ALDH1A1 gene expression,"ALDH1A1 gene; 1.35 nM BMP4 from day 22, day 70-75",significantly increased
same,expression level of ALDH1A1 gene versus Control (NUC) group,"ALDH1A1 gene; about day 40, 0.15 nM BMP4 from day 22",promoted
same,ALDH1A1 gene expression,"ALDH1A1 gene; about day 70 (versus about day 40), 0.15 nM BMP4 from day 22",tendency of decrease

# Reference: US20200277571A1, “METHOD FOR AMPLIFYING CONE PHOTORECEPTORS OR ROD PHOTORECEPTORS USING DORSALIZATION SIGNAL TRANSMITTER OR VENTRALIZATION SIGNAL TRANSMITTER” (RIKEN, priority 2017, published 2020)
